Laboratory results from US20080249028A1, “Thyrotropin-Releasing Hormone Analogs and Method of Use” (Roger Williams Hospital, priority 2005, published 2008).
Where a SMILES comes first, the peptide text is derived from it. [ ]: non-standard residue; d: D form. pGlu = O=C1CC[CH](C(=O)O)N1

How the values were obtained:
[1] = tested on: STZ-induced hyperglycemic rats; experiment: Effect on STZ-induced hyperglycemia in rats (blood glucose level); assay type: in vivo, rat
Method: (§1) Male Sprague-Dawley rats (S.D. 180 g) were used in the experiments described below. The animals lived in individual metabolism cages with free access to food and water, while food and body weight were monitored daily. Peripheral blood samples (approximately 10 μl) were obtained from the tail vein of the animals. The blood glucose levels were measured by using Accu-Check Blood Glucose Meter (Roche Diagnosetics Corporation, IN). Beta cell function was evaluated once every two days over a 2-week period by an individual unaware of the treatment group. Animals were evaluated separately for blood glucose level, food intake and body weight. The endpoint check was pancreatic insulin content and pancreatic beta cell number.
Streptozotocin (STZ) was used to chemically induce damage in pancreatic function in order to create a hyperglycemic state in the animals. Eight-week old male Sprague-Dawley rats (200.00 g±10 g) were injected with STZ by intraperitoneal (i.p.) (65 mg/kg body weight (BW)) to create hyperglycemic animals (24 to 48 hours). Blood glucose levels were monitored daily. Onset of hyperglycemia occurred usually about 24 to 48 hours after STZ administration.
[…] the seventh day or on the third day after STZ administration, which allowed for examination of the TRH/TRH analog treatment and the degree of pancreatic damage in the diabetic animal. Again, food intake, body weight and blood glucose levels of each of the animals were monitored. When hyperglycemia was determined to be reversed by TRH/TRH analog, the animal was sacrificed. Blood samples were collected for insulin assay and the pancreas and muscles were collected for further pathological and physiological tests.
(§2) The figures shown in the tables are blood glucose levels (mg/dL; i.e., milligrams of glucose per deciliter of blood).

Sprague-Dawley rats = experiment: Blood glucose level in rats given compound alone (no STZ); assay type: in vivo, rat; conditions: Table 1, rats, TRH alone (no STZ)
Method: as §1, §2

[2] = tested on: STZ-induced hyperglycemic rats; experiment: Serum insulin assay after TRH treatment of STZ rats; assay type: in vivo, rat; conditions: following TRH vs. control and STZ groups
Method: (§3) Partial pancreatic tissue was extracted with 1 N glacial acetic acid for insulin assay by ELISA. Four animals were used in each group. Each pancreas was placed in head (central) to tail (peripheral) orientation and immediately snap frozen and kept at −80° C. This orientation of the tissue provided an opportunity for sectioning of equal surface areas when cutting the frozen tissue. In this manner, the pancreas sections included every portion of the pancreas in parallel, while avoiding variations caused by sectioning from different areas. The HE histological staining was performed on serial sections (5 um thick) and islets were counted in 10 slides for each sample and standardized by dividing the total area (islets/cm^2).
A group of animals were given a single dose i.p. of 20 μg/kg BW or […] of TRH or TRH analogs on the seventh day or on the third day after STZ administration, which allowed for examination of the TRH/TRH analog treatment and the degree of pancreatic damage in the diabetic animal. Again, food intake, body weight and blood glucose levels of each of the animals were monitored. When hyperglycemia was determined to be reversed by TRH/TRH analog, the animal was sacrificed. Blood samples were collected for insulin assay and the pancreas and muscles were collected for further pathological and physiological tests.

pancreatic islets = experiment: Pancreatic islet count (HE histological staining); assay type: in vivo, rat; conditions: by activation of the TRH receptor
Method: as §3

[3] = tested on: pancreatic beta cell function; experiment: Beta cell function evaluation after pancreatic damage; assay type: in vivo, rat; conditions: at 2 weeks after pancreatic damage
Method: as §1

rat = conditions: injection of TRH into the rat brain; cited from earlier work
[4] = in vivo; cited from earlier work
[5] = Table 1, rats, STZ + compound i.p., Day 1
[6] = Table 1, rats, STZ + compound i.p., Day 2
[7] = Table 1, rats, STZ + compound i.p., Day 4
[8] = Table 1, rats, STZ + compound i.p., Day 9
[9] = Table 1, rats, STZ + compound i.p., Day 15
[10] = Table 1, rats, STZ + compound i.p., Day 22
[11] = Table 1, rats, STZ + compound i.p., Day 29
[12] = Table 1, rats, STZ + compound i.p., Day 39
[13] = Table 1, rats, STZ + compound i.p., Day 43
[14] = Table 1, rats, STZ + compound i.p., Day 50
[15] = Table 1, rats, STZ + compound i.p., Day 53
[16] = Table 1, rats, STZ + compound i.p., Day 56
[17] = Table 1, rats, STZ + compound i.p., Day 60
[18] = Table 1, rats, STZ + compound i.p., Day 64

NC(=O)[C@@H]1CCCN1C(=O)[C@H](Cc1cnc[nH]1)NC(=O)[C@@H]1CCC(=O)N1 [TRH, L-pyroglutamyl-L-histidyl-L-prolineamide, reference compound]
hyperglycemia ([1]; TRH administration on day 3 following STZ injection, after 6 days): reversed the hyperglycemia
blood glucose level [1, 5]: 107.8 mg/dL
blood glucose level [1, 6]: 321.4 mg/dL
blood glucose level [1, 7]: 448.8 mg/dL
blood glucose level [1, 8]: 191.2 mg/dL
blood glucose level [1, 9]: 182.6 mg/dL
blood glucose level [1, 10]: 380.2 mg/dL
blood glucose level [1, 11]: 337 mg/dL
blood glucose level [1, 12]: 283.4 mg/dL
blood glucose level [1, 13]: 220.4 mg/dL
blood glucose level [1, 14]: 182 mg/dL
blood glucose level [1, 15]: 151 mg/dL
blood glucose level [1, 16]: 139 mg/dL
blood glucose level [1, 17]: 180 mg/dL
blood glucose level [1, 18]: 156 mg/dL
glucose levels over time ([1]; rat treated with TRH after STZ-induced hyperglycemia, over a two month time period): continually decreased
STZ induced hyperglycemia ([1]; rats, after seven days of TRH and STZ treatment): normalized
blood glucose level (Sprague-Dawley rats; Day 1): 101.5 mg/dL
blood glucose level (Sprague-Dawley rats; Day 2): 125 mg/dL
blood glucose level (Sprague-Dawley rats; Day 4): 125 mg/dL
blood glucose level (Sprague-Dawley rats; Day 9): 96 mg/dL
blood glucose level (Sprague-Dawley rats; Day 15): 82.5 mg/dL
blood glucose level (Sprague-Dawley rats; Day 22): 89 mg/dL
blood glucose level (Sprague-Dawley rats; Day 29): 74.5 mg/dL
blood glucose level (Sprague-Dawley rats; Day 39): 80 mg/dL
blood glucose level (Sprague-Dawley rats; Day 43): 90.5 mg/dL
blood glucose level (Sprague-Dawley rats; Day 50): 93 mg/dL
blood glucose level (Sprague-Dawley rats; Day 53): 78 mg/dL
blood glucose level (Sprague-Dawley rats; Day 56): 75 mg/dL
blood glucose level (Sprague-Dawley rats; Day 60): 67 mg/dL
blood glucose level (Sprague-Dawley rats; Day 64): 85 mg/dL
levels of insulin in the serum [2]: increased
number of pancreatic islets (pancreatic islets): increases
pancreatic endocrine outcome [3]: improved
blood glucose levels (rat): reduce blood glucose levels
plasma half-life [4]: 4 to 5 min

CN(N=O)C(=O)N[C@@H]1[C@@H](O)[C@H](O)[C@@H](CO)O[C@@H]1O [S, streptozotocin, reference compound]
blood glucose level ([1]; Table 1, rats, STZ alone, Day 1): 99.8 mg/dL
blood glucose level ([1]; Table 1, rats, STZ alone, Day 2): 313.2 mg/dL
blood glucose level ([1]; Table 1, rats, STZ alone, Day 4): 433.6 mg/dL
blood glucose level ([1]; Table 1, rats, STZ alone, Day 9): 320 mg/dL
blood glucose level ([1]; Table 1, rats, STZ alone, Day 15): 393.8 mg/dL
blood glucose level ([1]; Table 1, rats, STZ alone, Day 22): 463.8 mg/dL
blood glucose level ([1]; Table 1, rats, STZ alone, Day 29): 522.4 mg/dL
blood glucose level ([1]; Table 1, rats, STZ alone, Day 39): 537.2 mg/dL
blood glucose level ([1]; Table 1, rats, STZ alone, Day 43): 466.8 mg/dL
blood glucose level ([1]; Table 1, rats, STZ alone, Day 50): 485 mg/dL
blood glucose level ([1]; Table 1, rats, STZ alone, Day 53): 460 mg/dL
blood glucose level ([1]; Table 1, rats, STZ alone, Day 56): 453 mg/dL
blood glucose level ([1]; Table 1, rats, STZ alone, Day 60): 542 mg/dL
blood glucose level ([1]; Table 1, rats, STZ alone, Day 64): 482 mg/dL
blood glucose level ([1]; Table 2, rats, STZ alone, Day 1): 98 mg/dL
blood glucose level ([1]; Table 2, rats, STZ alone, Day 4): 103 mg/dL
blood glucose level ([1]; Table 2, rats, STZ alone, Day 7): 506 mg/dL
blood glucose level ([1]; Table 2, rats, STZ alone, Day 11): 494 mg/dL
blood glucose level ([1]; Table 2, rats, STZ alone, Day 15): 329 mg/dL
blood glucose level ([1]; Table 2, rats, STZ alone, Day 18): 432 mg/dL
blood glucose level ([1]; Table 2, rats, STZ alone, Day 21): 453 mg/dL
blood glucose level ([1]; Table 2, rats, STZ alone, Day 25): 480 mg/dL
blood glucose level ([1]; Table 2, rats, STZ alone, Day 28): 499 mg/dL
blood glucose level ([1]; Table 2, rats, STZ alone, Day 32): 529 mg/dL
blood glucose level ([1]; Table 2, rats, STZ alone, Day 35): 499 mg/dL
blood glucose level ([1]; Table 2, rats, STZ alone, Day 39): 508 mg/dL
blood glucose level ([1]; Table 2, rats, STZ alone, Day 42): 549 mg/dL
blood glucose level ([1]; Table 2, rats, STZ alone, Day 46): 536 mg/dL
blood glucose level ([1]; Table 2, rats, STZ alone, Day 54): 500 mg/dL
blood glucose level ([1]; Table 2, rats, STZ alone, Day 61): 582 mg/dL
onset of hyperglycemia after STZ administration ([1]; rats, STZ 65 mg/kg BW i.p.): 24 to 48 h

NC(=O)C1CCCN1C(=O)C(Cc1ccccc1)NC(=O)C1CCC(=O)N1 (stereo not drawn) [PheT, 1-{3-phenyl-2-[(5-oxo-pyrrolidine-2-carbonyl)-amino]-propionyl}-pyrrolidine-2-carboxylic acid amide] ([pGlu]-Phe-Pro-NH2; configuration not given here)
blood glucose level [1, 5]: 105.8 mg/dL
blood glucose level [1, 6]: 316.8 mg/dL
blood glucose level [1, 7]: 419.8 mg/dL
blood glucose level [1, 8]: 130.8 mg/dL
blood glucose level [1, 9]: 234.4 mg/dL
blood glucose level [1, 10]: 359.2 mg/dL
blood glucose level [1, 11]: 407.2 mg/dL
blood glucose level [1, 12]: 434.8 mg/dL
blood glucose level [1, 13]: 432 mg/dL
blood glucose level [1, 14]: 478 mg/dL
blood glucose level [1, 15]: 424 mg/dL
blood glucose level [1, 16]: 355 mg/dL
blood glucose level [1, 17]: 381 mg/dL
blood glucose level [1, 18]: 414 mg/dL
